{"source": "patent US20040242641A1", "about": "“(1S,5S)-3-(5,6-dichloro-3-pyridinyl)-3,6-diazabicyclo[3.2.0]heptane is an effective analgesic agent” (priority 2003, published 2004)", "key": {"[1]": {"biological_target": "T1, ganglionic-like nicotinic acetylcholine receptor (nAChR) subtype in IMR-32 human neuroblastoma cells (Homo sapiens, UniProt P30926+P32297)", "T1 construct": "host or cells: IMR-32 human neuroblastoma cells", "T1 sequence (P32297 32-505)": "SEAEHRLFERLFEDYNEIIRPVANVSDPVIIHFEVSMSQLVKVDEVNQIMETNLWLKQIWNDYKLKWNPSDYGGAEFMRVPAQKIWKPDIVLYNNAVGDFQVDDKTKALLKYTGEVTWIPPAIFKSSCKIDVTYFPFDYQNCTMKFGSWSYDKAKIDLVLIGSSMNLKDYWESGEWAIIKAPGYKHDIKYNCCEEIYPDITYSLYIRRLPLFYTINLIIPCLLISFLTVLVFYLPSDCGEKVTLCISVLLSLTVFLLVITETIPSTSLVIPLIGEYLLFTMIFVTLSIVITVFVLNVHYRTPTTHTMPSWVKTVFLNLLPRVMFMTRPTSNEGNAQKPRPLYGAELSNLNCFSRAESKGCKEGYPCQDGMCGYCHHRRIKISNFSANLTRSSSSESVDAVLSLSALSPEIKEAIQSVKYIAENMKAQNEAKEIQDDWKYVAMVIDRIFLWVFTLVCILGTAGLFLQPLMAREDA", "T1 sequence (P30926 22-498)": "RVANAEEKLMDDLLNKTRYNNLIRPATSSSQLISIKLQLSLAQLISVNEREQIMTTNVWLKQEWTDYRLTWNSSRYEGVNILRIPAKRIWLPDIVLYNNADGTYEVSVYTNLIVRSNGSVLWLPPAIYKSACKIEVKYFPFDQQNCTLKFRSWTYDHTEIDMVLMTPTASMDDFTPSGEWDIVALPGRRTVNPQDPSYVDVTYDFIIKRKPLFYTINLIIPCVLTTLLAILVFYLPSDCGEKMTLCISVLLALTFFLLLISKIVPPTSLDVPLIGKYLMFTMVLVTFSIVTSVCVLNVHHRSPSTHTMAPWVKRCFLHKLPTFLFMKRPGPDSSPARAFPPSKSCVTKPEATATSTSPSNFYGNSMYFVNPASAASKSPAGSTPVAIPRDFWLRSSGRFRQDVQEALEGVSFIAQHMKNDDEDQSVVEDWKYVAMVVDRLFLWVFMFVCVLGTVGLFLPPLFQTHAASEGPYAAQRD", "experiment": "IMR-32 FLIPR assay, intracellular Ca2+ changes (side effect liability)", "type": "cell-based", "protocol": "Cells were plated out at a density of 1×10^6 cells per well on black-walled, clear-bottomed, 96-well plates (Costar, Cambridge, Mass.) and used approximately 72 hours after plating. All plates were coated with polyethylenimine to aid in the adherence of the cells to the plate.\nChanges in the intracellular Ca^2+ content of IMR-32 cells were measured using the calcium chelating dye Fluo-4 (Molecular Probes, Eugene, Oreg.) in conjunction with a Fluorescent Imaging Plate Reader (Molecular Devices, Sunnyvale, Calif.). The cell permeant acetoxymethyl (AM) ester form of […] was prepared to a concentration of 1 mM in anhydrous DMSO and 10% pluronic acid. The dye was then diluted to a final concentration of […] in growth media and placed on the cells for 1 hour at 37° C. Black-walled 96-well plates were utilized to reduce light scattering. The unincorporated dye was removed from the cells by excessive washing with the assay buffer (HETES buffer, 20 mM Hepes, 120 mM NaCl, 5 mM KCl, 1 mM MgCl2, 5 mM glucose, […], and 5 mM CaCl2). […] The intensity of the fluorescence was captured by the CCD camera every second for the first minute following the agonist addition with additional readings every 5 seconds for a total time period of 5 minutes. These images were digitally transferred to an interfaced PC and change in fluorescence intensity processed for each well. The exposure setting of the camera was 0.4 sec with an f-stop setting of […].\nThe IMR-32 FLIPR assay, described herein, measures cation […] that is mediated through the ganglionic-like nicotinic acetylcholine receptor (nAChR) subtype. Agents that facilitate cation […] of the ganglionic nAChR subtype have been linked to side effect liabilty such as cardiovascular pressor effects."}, "[2]": {"system": "mechanical allodynia in the affected paw of animals that had undergone spinal nerve ligation", "experiment": "Spinal nerve (L5/L6) ligation neuropathic pain model, mechanical allodynia with von Frey filaments", "type": "in vivo, rat", "settings": "for ED50: Rattus norvegicus, read-out: Analgesic Effect ED50", "text": "Male Sprague Dawley rats (80-100 g) were purchased from Charles River (Portage, Mich.). Prior to surgery, animals were group-housed and maintained in a temperature regulated environment (lights on between 7:00 a.m. and 8:00 p.m.). Following nerve ligation surgery, animals were group housed. Rats had access to food and water ad libitum.\nThe L5 and L6 spinal nerves of anesthesized rats were tightly ligated in the manner described previously by S. H. Kim and J. M. Chung, PAIN 50:355 (1992). Briefly, an incision was made on the dorsal portion of the hip and the muscle was blunt dissected to reveal the spinal processes. The L6 transverse process was removed, and the left L5 and L6 spinal nerves were tightly ligated with 5.0 braided silk suture. The wound was cleaned, the membrane sewn with 4.0 dissolvable Vicryl suture and the skin closed with wound clips.\nFor the assessment of neuropathic pain, mechanical allodynia in the affected paw of animals that had undergone spinal nerve ligation was evaluated using von Frey filaments. As described previously by S. R. Chaplan, F. W. Bach, J. W. Pogrel, J. M. Chung, and T. L. Yaksh, “Quantitative assessment of tactile allodynia in the rat paw” J. Neurosci. Meth., 53:55-63 (1994) two weeks following surgery, rats were acclimated to the testing box that was constructed of plexiglass with a wire mesh floor to allow access to the planter surface of the hindpaws. Using the Dixons Up-Down method, a baseline level of allodynia was determined to have a withdrawal threshold of <4 g of pressure. […] The EC50 was determined to be 1 μmol/kg."}, "[3]": {"biological_target": "T2, neuronal nicotinic acetylcholine receptors (Rattus norvegicus, UniProt P09483+P12390)", "T2 construct": "crude synaptic membrane preparations from whole rat brain; from tissue; host or cells: whole rat brain, crude synaptic membranes", "T2 sequence (P09483 31-630)": "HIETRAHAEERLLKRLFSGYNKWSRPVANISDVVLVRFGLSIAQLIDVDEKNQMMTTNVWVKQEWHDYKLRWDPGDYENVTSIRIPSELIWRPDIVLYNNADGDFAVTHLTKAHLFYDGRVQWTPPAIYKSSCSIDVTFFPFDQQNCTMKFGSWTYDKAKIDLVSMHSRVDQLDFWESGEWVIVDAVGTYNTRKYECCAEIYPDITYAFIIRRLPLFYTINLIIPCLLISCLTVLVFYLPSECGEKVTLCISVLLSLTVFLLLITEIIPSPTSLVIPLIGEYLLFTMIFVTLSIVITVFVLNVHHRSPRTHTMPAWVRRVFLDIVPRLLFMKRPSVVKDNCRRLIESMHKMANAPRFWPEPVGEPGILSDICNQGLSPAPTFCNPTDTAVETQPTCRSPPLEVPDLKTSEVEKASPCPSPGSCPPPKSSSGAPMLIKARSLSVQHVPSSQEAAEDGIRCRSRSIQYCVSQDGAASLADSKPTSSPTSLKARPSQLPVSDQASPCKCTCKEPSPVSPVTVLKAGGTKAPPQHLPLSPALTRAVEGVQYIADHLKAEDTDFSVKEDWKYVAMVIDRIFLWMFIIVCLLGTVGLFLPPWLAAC", "T2 sequence (P12390 25-500)": "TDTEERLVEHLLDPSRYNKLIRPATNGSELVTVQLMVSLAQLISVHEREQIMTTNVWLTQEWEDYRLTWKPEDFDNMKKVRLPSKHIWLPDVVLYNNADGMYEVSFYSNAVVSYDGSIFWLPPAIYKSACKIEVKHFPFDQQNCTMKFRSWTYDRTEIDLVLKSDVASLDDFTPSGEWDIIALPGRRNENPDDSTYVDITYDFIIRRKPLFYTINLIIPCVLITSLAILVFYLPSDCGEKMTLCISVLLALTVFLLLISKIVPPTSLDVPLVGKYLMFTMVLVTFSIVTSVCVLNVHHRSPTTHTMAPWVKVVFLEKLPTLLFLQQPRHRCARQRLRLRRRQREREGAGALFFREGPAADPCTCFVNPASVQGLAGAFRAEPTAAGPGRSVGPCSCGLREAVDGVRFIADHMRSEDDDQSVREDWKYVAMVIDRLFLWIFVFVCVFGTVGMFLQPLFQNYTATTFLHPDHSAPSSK", "experiment": "[3H]-cytisine binding to neuronal nicotinic acetylcholine receptors, crude synaptic membranes from whole rat brain", "settings": "[3H]-CYT 1.25 nM, Cheng and Prusoff correction", "protocol": "(1S,5S)-3-(5,6-Dichloro-3-pyridinyl)-3,6-diazabicyclo [3.2.0]heptane was subjected to an vitro assay against the nicotinic acetylcholine receptor as described below.\nBinding of [^3H]-cytisine ([^3H]-CYT) to neuronal nicotinic acetylcholine receptors was accomplished using crude synaptic membrane preparations from whole rat brain (Pabreza et al., Molecular Pharmacol., 1990, 39:9). Washed membranes were stored at −80° C. prior to use. Frozen aliquots were slowly thawed and resuspended in 20 volumes of buffer (containing: 120 mM NaCl, 5 mM KCl, 2 mM MgCl2, 2 mM CaCl2 and 50 mM Tris-Cl, pH 7.4 @4° C.). After centrifuging at 20,000×g for 15 minutes, the pellets were resuspended in 30 volumes of buffer.\nEach test compound was dissolved in water to make 10 mM stock solutions, diluted (1 :100) with buffer (as above), and further taken through seven serial log dilutions to produce test solutions from 10^−5 to 10^−11 M.\nHomogenate (containing 125-150 μg protein) was added to triplicate tubes containing the range of concentrations of test compound described above and [^3H]-CYT (1.25 nM) in a final volume of 500 μL. […] The filters are counted in 4 mL of Ecolume® (ICN). Nonspecific binding was determined in the presence of 10 μM (−)-nicotine and values were expressed as a percentage of total binding. […]"}, "[4]": {"system": "scopolamine-induced cognitive deficit", "experiment": "Morris water maze, spatial discrimination version, scopolamine-induced cognitive deficit", "type": "in vivo, rat", "settings": "about 0.001 to about 5 μmol/kg, 30 minutes prior to the test; scopolamine-HBr 0.3 mg/kg i.p.", "protocol": "Male, Long-Evans rats, 300-400 g, obtained from Charles River laboratories were used in this study. During two daily habituation sessions, rats are trained to find a visible escape platform in a pool (180 cm diameter and 60 cm high) filled to a depth of 37 cm with water made opaque with powdered milk. Water temperature is maintained at 26° C. On the second day of habituation training, latency to escape measures are obtained in order to assure that animals are assigned to groups without swim speed bias. For spatial discrimination training, two visible platforms, covered in aluminum foil, are present. The platforms remain in the same position (diagonal to each other) through 5 days of training. Only one of the platforms provides escape; the other, made of expanded polystyrene, will not support the animals' weight. Rats receive six trials/day, with start position changed from trial to trial. The number of contacts with the incorrect platform (errors) serves as the dependent variable.\nA cognitive deficit, as measured by increased number of errors in the water maze test, is induced by i.p. administration of the muscarinic antagonist scopolamine-HBr (0.3 mg/kg), dosed 15 min prior to each daily discrimination training session (over five days total)."}, "[5]": {"settings": "IMR-32, Table 1, relative to nicotine, read-out: IMR-32 activitiy % efficacy"}, "[6]": {"settings": "intraperitoneally 15 minutes before testing"}, "[7]": {"settings": "Table 1, read-out: IMR-32 activitiy EC50"}}, "note": "Like-named read-outs stand apart in the source and are kept apart here."}
{"smiles": "N#Cc1cc(N2C[C@@H]3CN[C@@H]3C2)cnc1Br", "note": "[2-bromo-5-[(1S,5S)-3,6-diazabicyclo[3.2.0]hept-3-yl]nicotinonitrile]", "values": [{"measurement": "EC50", "setting": "[1]", "value": 1.2, "unit": "µM"}, {"measurement": "Emax", "setting": "[1]; [5]", "value": 103, "unit": "%"}, {"measurement": "ED50", "setting": "[2]", "value": "> 19", "unit": "µmol/kg"}]}
{"smiles": "Clc1cc(N2C[C@@H]3CN[C@@H]3C2)cnc1Br", "note": "[(1S,5S)-3-(6-bromo-5-chloro-3-pyridinyl)-3,6-diazabicyclo[3.2.0]heptane]", "values": [{"measurement": "EC50", "setting": "[1]", "value": 1.4, "unit": "µM"}, {"measurement": "Emax", "setting": "[1]; [5]", "value": 81, "unit": "%"}, {"measurement": "ED50", "setting": "[2]", "value": "> 19", "unit": "µmol/kg"}]}
{"smiles": "Clc1cc(N2C[C@@H]3CN[C@@H]3C2)cnc1Cl", "note": "[(1S,5S)-3-(5,6-dichloro-3-pyridinyl)-3,6-diazabicyclo[3.2.0]heptane]", "values": [{"measurement": "Emax", "setting": "[1]; [5]", "value": 73, "unit": "%"}, {"measurement": "Emax", "setting": "[1]; IMR-32, relative to 100 μM nicotine (100%), read-out: maximum efficacy compared to nicotine", "value": 73, "unit": "%"}, {"measurement": "EC50", "setting": "[1]; percent maximal intensity relative to 100 μM nicotine, read-out: EC50 (calcium, IMR-32 cells)", "value": 5.5, "unit": "µM"}, {"measurement": "Ki", "setting": "[3]", "value": 0.0001, "unit": "µM"}, {"measurement": "ED50", "setting": "[2]; Table 1", "value": 1, "unit": "µmol/kg"}, {"measurement": "ED50 (increase in withdrawal threshold)", "setting": "[2]; [6]", "value": 1, "unit": "µmol/kg"}, {"measurement": "effect on withdrawal threshold", "setting": "[2]; [6]", "value": "dose-dependent increase in the withdrawal threshold"}, {"measurement": "maximum effect on withdrawal threshold", "setting": "[2]; intraperitoneally 15 minutes before testing, baseline threshold <4 g", "value": 15, "unit": "g"}, {"measurement": "effect on scopolamine-induced cognitive deficit in water maze (errors)", "setting": "[4]", "value": "reversed the cognitive deficit and normalized the performance of the animals in the water maze"}]}
{"smiles": "Clc1ccc(N2C[C@@H]3CN[C@@H]3C2)cn1", "note": "[(1S,5S)-3-(6-chloro-3-pyridinyl)-3,6-diazabicyclo[3.2.0]heptane]", "values": [{"measurement": "EC50", "setting": "[1]", "value": 1.4, "unit": "µM"}, {"measurement": "Emax", "setting": "[1]; [5]", "value": 102, "unit": "%"}, {"measurement": "ED50", "setting": "[2]", "value": 11, "unit": "µmol/kg"}]}
{"smiles": "c1cncc(N2C[C@@H]3CN[C@@H]3C2)c1", "note": "[(1S,5S)-3-(3-pyridinyl)-3,6-diazabicyclo[3.2.0]heptane]", "values": [{"measurement": "Emax", "setting": "[1]; [5]", "value": 100, "unit": "%"}, {"measurement": "EC50", "setting": "[1]; [7]", "value": 23.2, "unit": "µM"}, {"measurement": "ED50", "setting": "[2]", "value": 20, "unit": "µmol/kg"}]}
{"smiles": "N#Cc1cncc(N2C[C@@H]3CN[C@@H]3C2)c1", "note": "[5-[(1S,5S)-3,6-diazabicyclo[3.2.0]hept-3-yl]nicotinonitrile]", "values": [{"measurement": "Emax", "setting": "[1]; [5]", "value": 85, "unit": "%"}, {"measurement": "EC50", "setting": "[1]; [7]", "value": 19.9, "unit": "µM"}, {"measurement": "ED50", "setting": "[2]", "value": "> 19", "unit": "µmol/kg"}]}
{"smiles": "Clc1ccc(C2CC3CCC2N3)cn1", "note": "(stereo not drawn) [epibatidine]", "values": [{"measurement": "Emax", "setting": "[1]; IMR-32, read-out: maximum efficacy compared to nicotine", "value": 137, "unit": "%"}]}
{"smiles": "COc1cncc(N2C[C@@H]3CN[C@@H]3C2)c1", "note": "[(1S,5S)-3-(5-methoxy-3-pyridinyl)-3,6-diazabicyclo[3.2.0]heptane]", "values": [{"measurement": "EC50", "setting": "[1]", "value": 3.8, "unit": "µM"}, {"measurement": "Emax", "setting": "[1]; [5]", "value": 147, "unit": "%"}, {"measurement": "ED50", "setting": "[2]", "value": "> 19", "unit": "µmol/kg"}]}
{"smiles": "Clc1cc(N2C[C@H]3CN[C@H]3C2)cnc1Cl", "note": "[(1R,5R)-3-(5,6-dichloro-3-pyridinyl)-3,6-diazabicyclo[3.2.0]heptane]", "values": [{"measurement": "Emax", "setting": "[1]; [5]", "value": 106, "unit": "%"}, {"measurement": "EC50", "setting": "[1]; [7]", "value": 0.078, "unit": "µM"}]}
{"smiles": "Cc1cc(N2C[C@@H]3CN[C@@H]3C2)cnc1Cl", "note": "[(1S,5S)-3-(6-chloro-5-methyl-3-pyridinyl)-3,6-diazabicyclo[3.2.0]heptane]", "values": [{"measurement": "EC50", "setting": "[1]", "value": 3.4, "unit": "µM"}, {"measurement": "Emax", "setting": "[1]; [5]", "value": 94, "unit": "%"}, {"measurement": "ED50", "setting": "[2]", "value": "> 19", "unit": "µmol/kg"}]}
